Assay results taken from PMC5218480 (PLoS ONE, 2017).

Test system: MV-4-11 cells
Assay: Gene expression microarray analysis (Affymetrix PrimeView) and GSEA
Format: cell-based, human
Set-up: RFU PODN (11730768_x_at) / Fold change /veh PODN (11730768_x_at) / RFU LINC00158 (11744669_a_at) / Fold change /veh LINC00158 (11744669_a_at) / RFU DUSP10 (11751237_a_at) / Fold change /veh DUSP10 (11751237_a_at) / RFU ID3 (11757404_x_at) / Fold change /veh ID3 (11757404_x_at) / RFU PLEKHG5 (11737974_s_at) / Fold change /veh PLEKHG5 (11737974_s_at) / RFU LRRC4B (11730491_at) / Fold change /veh LRRC4B (11730491_at) / RFU GIMAP4 (11747438_a_at) / Fold change /veh GIMAP4 (11747438_a_at) / RFU KRT8 (11758183_x_at) / Fold change /veh KRT8 (11758183_x_at) / RFU CNN1 (11734310_a_at) / Fold change /veh CNN1 (11734310_a_at) / RFU VPS37D (11726825_at) / Fold change /veh VPS37D (11726825_at) / RFU C10orf10 (11716522_x_at) / Fold change /veh C10orf10 (11716522_x_at) / RFU KIR2DL2 /// KIR2DL4 /// KIR2DL5A /// KIR2DL5B /// KIR2DS1 /// KIR2DS2 /// KIR2DS3 /// KIR2DS4 /// KIR3DL3 /// KIR3DL3 /// KIR3DS1 (11738374_at) / Fold change /veh KIR2DL2 /// KIR2DL4 /// KIR2DL5A /// KIR2DL5B /// KIR2DS1 /// KIR2DS2 /// KIR2DS3 /// KIR2DS4 /// KIR3DL3 /// KIR3DL3 /// KIR3DS1 (11738374_at) / RFU C1QL1 (11718748_at) / Fold change /veh C1QL1 (11718748_at) / RFU TMPRSS4 (11747572_a_at) / Fold change /veh TMPRSS4 (11747572_a_at) / RFU HAMP (11756126_x_at) / Fold change /veh HAMP (11756126_x_at) / RFU RNFT2 (11725882_a_at) / Fold change /veh RNFT2 (11725882_a_at) / RFU NR4A2 (11747474_a_at) / Fold change /veh NR4A2 (11747474_a_at) / RFU ABCC12 (11746883_a_at) / Fold change /veh ABCC12 (11746883_a_at) / RFU TMEM136 (11760407_x_at) / Fold change /veh TMEM136 (11760407_x_at) / RFU CLDN22 /// WWC2 (11732394_at) / Fold change /veh CLDN22 /// WWC2 (11732394_at) / RFU HLA-DPB1 (11760878_x_at) / Fold change /veh HLA-DPB1 (11760878_x_at) / RFU SPINT1 (11716480_a_at) / Fold change /veh SPINT1 (11716480_a_at) / RFU GAP43 (11754022_s_at) / Fold change /veh GAP43 (11754022_s_at) / RFU A4GNT (11735810_at) / Fold change /veh A4GNT (11735810_at) / RFU PRB3 (11715151_x_at) / Fold change /veh PRB3 (11715151_x_at) / RFU TUBB4B (11761932_at) / Fold change /veh TUBB4B (11761932_at) / RFU CAPN14 (11732068_a_at) / Fold change /veh CAPN14 (11732068_a_at) / RFU TMCC2 (11721928_a_at) / Fold change /veh TMCC2 (11721928_a_at) / RFU IRGQ (11745062_a_at) / Fold change /veh IRGQ (11745062_a_at) / RFU FAM174B (11720279_a_at) / Fold change /veh FAM174B (11720279_a_at) / RFU TMPRSS4 (11748680_a_at) / Fold change /veh TMPRSS4 (11748680_a_at) / RFU FAM212B (11763350_a_at) / Fold change /veh FAM212B (11763350_a_at) / RFU PLEKHG5 (11743358_a_at) / Fold change /veh PLEKHG5 (11743358_a_at) / RFU ZSCAN30 (11745921_a_at) / Fold change /veh ZSCAN30 (11745921_a_at) / RFU CMKLR1 (11741424_a_at) / Fold change /veh CMKLR1 (11741424_a_at) / RFU LOC101060620 /// MAPK8IP1 (11723275_at) / Fold change /veh LOC101060620 /// MAPK8IP1 (11723275_at) / RFU SPTSSB (11747773_x_at) / Fold change /veh SPTSSB (11747773_x_at) / RFU PRSS12 (11739890_at) / Fold change /veh PRSS12 (11739890_at) / RFU BIN1 (11741810_x_at) / Fold change /veh BIN1 (11741810_x_at) / RFU WNT11 (11732464_a_at) / Fold change /veh WNT11 (11732464_a_at) / RFU C10orf10 (11716521_a_at) / Fold change /veh C10orf10 (11716521_a_at) / RFU C5orf56 (11738089_at) / Fold change /veh C5orf56 (11738089_at) / RFU CYB561 (11721691_x_at) / Fold change /veh CYB561 (11721691_x_at) / RFU ANKRD19P (11752326_a_at) / Fold change /veh ANKRD19P (11752326_a_at) / RFU OR2T12 /// OR2T33 /// OR2T8 (11738714_s_at) / Fold change /veh OR2T12 /// OR2T33 /// OR2T8 (11738714_s_at) / RFU VCAN (11748164_a_at) / Fold change /veh VCAN (11748164_a_at) / RFU JSRP1 (11732532_at) / Fold change /veh JSRP1 (11732532_at) / RFU KRTAP10-11 (11738290_x_at) / Fold change /veh KRTAP10-11 (11738290_x_at) / RFU MYO3A (11730013_a_at) / Fold change /veh MYO3A (11730013_a_at) / RFU EBF3 (11725865_a_at) / Fold change /veh EBF3 (11725865_a_at) / RFU CAMK2N1 (11719241_x_at) / Fold change /veh CAMK2N1 (11719241_x_at) / RFU C5orf56 (11738088_a_at) / Fold change /veh C5orf56 (11738088_a_at) / RFU OLFML3 (11715873_a_at) / Fold change /veh OLFML3 (11715873_a_at) / RFU LOC100653217 /// NTM (11731650_a_at) / Fold change /veh LOC100653217 /// NTM (11731650_a_at) / RFU MAPK11 (11762145_a_at) / Fold change /veh MAPK11 (11762145_a_at) / RFU FIZ1 (11724087_x_at) / Fold change /veh FIZ1 (11724087_x_at) / RFU OASL (11726364_x_at) / Fold change /veh OASL (11726364_x_at) / RFU SOX15 (11748057_x_at) / Fold change /veh SOX15 (11748057_x_at) / RFU CD79A (11719716_a_at) / Fold change /veh CD79A (11719716_a_at) / RFU HIST1H1D (11736915_at) / Fold change /veh HIST1H1D (11736915_at) / RFU CASKIN2 (11723855_a_at) / Fold change /veh CASKIN2 (11723855_a_at) / RFU LOC730098 (11760151_x_at) / Fold change /veh LOC730098 (11760151_x_at) / RFU OR4N2 (11742367_at) / Fold change /veh OR4N2 (11742367_at) / RFU PRRT2 (11749266_a_at) / Fold change /veh PRRT2 (11749266_a_at) / RFU SNX32 (11753110_a_at) / Fold change /veh SNX32 (11753110_a_at) / RFU CDHR5 (11726645_a_at) / Fold change /veh CDHR5 (11726645_a_at) / RFU RCAN1 (11760418_a_at) / Fold change /veh RCAN1 (11760418_a_at) / RFU FAM167A (11723789_a_at) / Fold change /veh FAM167A (11723789_a_at) / RFU FAM26E (11764081_at) / Fold change /veh FAM26E (11764081_at) / RFU ISYNA1 (11749810_s_at) / Fold change /veh ISYNA1 (11749810_s_at) / RFU ACY1 (11761880_at) / Fold change /veh ACY1 (11761880_at) / RFU 11764098_at / Fold change /veh 11764098_at / RFU SAMD14 (11745864_x_at) / Fold change /veh SAMD14 (11745864_x_at) / RFU NPB (11741838_a_at) / Fold change /veh NPB (11741838_a_at) / RFU TMPRSS6 (11731388_a_at) / Fold change /veh TMPRSS6 (11731388_a_at) / RFU KRTAP10-2 (11738614_at) / Fold change /veh KRTAP10-2 (11738614_at) / RFU ARHGAP8 /// PRR5-ARHGAP8 (11727945_x_at) / Fold change /veh ARHGAP8 /// PRR5-ARHGAP8 (11727945_x_at) / RFU KRTAP5-7 /// NADSYN1 (11734609_at) / Fold change /veh KRTAP5-7 /// NADSYN1 (11734609_at) / RFU RASL12 (11751679_a_at) / Fold change /veh RASL12 (11751679_a_at) / RFU CDKN2B (11736163_a_at) / Fold change /veh CDKN2B (11736163_a_at) / RFU PRF1 (11729649_at) / Fold change /veh PRF1 (11729649_at) / RFU, ZNF638 /// ZNF638-IT1 / Fold change vs veh, ZNF638 /// ZNF638-IT1 / RFU, PANK3 / Fold change vs veh, PANK3 / RFU, SH3YL1 / Fold change vs veh, SH3YL1 / RFU, ZEB2 / Fold change vs veh, ZEB2 / RFU, NRIP1 / Fold change vs veh, NRIP1 / RFU, PTTG1IP / Fold change vs veh, PTTG1IP / RFU, CAPN2 / Fold change vs veh, CAPN2 / RFU, MED14 / Fold change vs veh, MED14 / RFU, SNORA58 / Fold change vs veh, SNORA58 / RFU, C1orf63 / Fold change vs veh, C1orf63 / RFU, LRRFIP1 / Fold change vs veh, LRRFIP1 / RFU, NDUFAF7 / Fold change vs veh, NDUFAF7 / RFU, SLC12A2 / Fold change vs veh, SLC12A2 / RFU, IBTK / Fold change vs veh, IBTK / RFU, ESF1 / Fold change vs veh, ESF1 / Fold change vs veh, TMEM50B / RFU, TAOK1 / Fold change vs veh, TAOK1 / RFU, ACBD3 / Fold change vs veh, ACBD3 / RFU, TMA16 / Fold change vs veh, TMA16 / RFU, RWDD3 / Fold change vs veh, RWDD3 / RFU, BCAT1 / Fold change vs veh, BCAT1 / RFU, EDEM3 / Fold change vs veh, EDEM3 / RFU, TMEM33 / Fold change vs veh, TMEM33 / RFU, WDR75 / Fold change vs veh, WDR75 / RFU, AHCTF1 / Fold change vs veh, AHCTF1 / RFU, TFRC / Fold change vs veh, TFRC / RFU, ZDHHC17 / Fold change vs veh, ZDHHC17 / RFU, NOM1 / Fold change vs veh, NOM1 / RFU, ARL8B / Fold change vs veh, ARL8B / RFU, ZBTB11 / Fold change vs veh, ZBTB11 / RFU, TAMM41 / Fold change vs veh, TAMM41 / RFU, KIAA1704 /// LOC100996395 / Fold change vs veh, KIAA1704 /// LOC100996395 / RFU, ING1 / Fold change vs veh, ING1 / RFU, TRMT61B / Fold change vs veh, TRMT61B / RFU, FUBP3 / Fold change vs veh, FUBP3 / RFU, TP53 / Fold change vs veh, TP53 / RFU, TNKS2 / Fold change vs veh, TNKS2 / RFU, ZFP14 / Fold change vs veh, ZFP14 / RFU, ACTR2 / Fold change vs veh, ACTR2 / RFU, PPP3R1 / Fold change vs veh, PPP3R1 / RFU, PIK3R1 / Fold change vs veh, PIK3R1 / RFU, HNRNPA1 / Fold change vs veh, HNRNPA1 / RFU, RNF170 / Fold change vs veh, RNF170 / RFU, ZNF28 / Fold change vs veh, ZNF28 / RFU, RNGTT / Fold change vs veh, RNGTT / RFU, OGT / Fold change vs veh, OGT / RFU, BRD1 / Fold change vs veh, BRD1 / RFU, MARS / Fold change vs veh, MARS / RFU, ZNF655 / Fold change vs veh, ZNF655 / RFU, FAHD1 / Fold change vs veh, FAHD1 / RFU, BDP1 / Fold change vs veh, BDP1 / RFU, LRRCC1 / Fold change vs veh, LRRCC1 / RFU, ARID1A / Fold change vs veh, ARID1A / RFU, ZNF146 / Fold change vs veh, ZNF146 / RFU, ZNF330 / Fold change vs veh, ZNF330 / RFU, GPN3 / Fold change vs veh, GPN3 / RFU, C9orf123 / Fold change vs veh, C9orf123 / RFU, N4BP2L2 / Fold change vs veh, N4BP2L2 / RFU, ARFIP1 / Fold change vs veh, ARFIP1 / RFU, FAM179B / Fold change vs veh, FAM179B / RFU, BCL10 / Fold change vs veh, BCL10 / RFU, UHRF1BP1L / Fold change vs veh, UHRF1BP1L / RFU, BET1 / Fold change vs veh, BET1 / RFU, CNOT2 / Fold change vs veh, CNOT2 / RFU, ZNF268 / Fold change vs veh, ZNF268 / Fold change vs veh, ZNF507 / RFU, DGCR2 / Fold change vs veh, DGCR2 / RFU, WDSUB1 / Fold change vs veh, WDSUB1 / Fold change vs veh, HSP90B1 /// MIR3652 / RFU, ADSS / Fold change vs veh, ADSS / RFU, GK / Fold change vs veh, GK / RFU, ZNF148 / Fold change vs veh, ZNF148 / RFU, TAF9 / Fold change vs veh, TAF9 / RFU, SLC1A5 / Fold change vs veh, SLC1A5 / RFU, SLMO2 / Fold change vs veh, SLMO2 / RFU, ABCC4 / Fold change vs veh, ABCC4 / RFU, LOC101060439 /// RAP1B / Fold change vs veh, LOC101060439 /// RAP1B / RFU, RFX7 / Fold change vs veh, RFX7 / RFU, GTPBP10 / Fold change vs veh, GTPBP10 / RFU, CNEP1R1 / Fold change vs veh, CNEP1R1 / RFU, BIVM-ERCC5 /// ERCC5 / Fold change vs veh, BIVM-ERCC5 /// ERCC5 / RFU, ILF3 / Fold change vs veh, ILF3 / RFU 11762660_at / Fold change /veh 11762660_at / RFU VCAN (11757783_s_at) / Fold change /veh VCAN (11757783_s_at) / RFU DDX43 (11728927_at) / Fold change /veh DDX43 (11728927_at) / RFU KRT8 (11758188_x_at) / Fold change /veh KRT8 (11758188_x_at) / RFU NKD1 (11759106_at) / Fold change /veh NKD1 (11759106_at) / RFU SRD5A1 (11742802_a_at) / Fold change /veh SRD5A1 (11742802_a_at) / RFU TPSAB1 /// TPSB2 (11721975_s_at) / Fold change /veh TPSAB1 /// TPSB2 (11721975_s_at) / RFU GSTM3 (11746129_a_at) / Fold change /veh GSTM3 (11746129_a_at) / RFU IL23R (11737362_x_at) / Fold change /veh IL23R (11737362_x_at) / RFU TMEM51 (11727254_a_at) / Fold change /veh TMEM51 (11727254_a_at) / RFU PIWIL2 (11732686_x_at) / Fold change /veh PIWIL2 (11732686_x_at) / RFU ORM1 (11744905_x_at) / Fold change /veh ORM1 (11744905_x_at) / RFU CCDC152 (11743942_at) / Fold change /veh CCDC152 (11743942_at) / RFU ECM1 (11717891_a_at) / Fold change /veh ECM1 (11717891_a_at) / RFU IL23R (11748794_a_at) / Fold change /veh IL23R (11748794_a_at) / RFU TNFAIP8L3 (11732012_x_at) / Fold change /veh TNFAIP8L3 (11732012_x_at) / RFU MBOAT4 (11741988_at) / Fold change /veh MBOAT4 (11741988_at) / RFU 11764193_at / Fold change /veh 11764193_at / RFU TMEM53 (11763286_at) / Fold change /veh TMEM53 (11763286_at) / RFU MAGEB2 (11727129_at) / Fold change /veh MAGEB2 (11727129_at) / RFU TMEM200A (11744735_a_at) / Fold change /veh TMEM200A (11744735_a_at) / RFU CCDC152 (11751479_a_at) / Fold change /veh CCDC152 (11751479_a_at) / RFU FAM211A (11726209_a_at) / Fold change /veh FAM211A (11726209_a_at) / RFU RGS16 (11746705_a_at) / Fold change /veh RGS16 (11746705_a_at) / RFU VCAN (11755009_s_at) / Fold change /veh VCAN (11755009_s_at) / RFU RHOB (11743442_s_at) / Fold change /veh RHOB (11743442_s_at) / RFU RGS16 (11720943_a_at) / Fold change /veh RGS16 (11720943_a_at) / RFU RGS16 (11720944_at) / Fold change /veh RGS16 (11720944_at) / RFU, VPS4B / Fold change vs veh, VPS4B / RFU, CREB1 / Fold change vs veh, CREB1 / RFU, DNAJC13 / Fold change vs veh, DNAJC13 / RFU, GNAQ / Fold change vs veh, GNAQ / RFU, CDK5R1 / Fold change vs veh, CDK5R1 / RFU, ZRANB3 / Fold change vs veh, ZRANB3 / RFU, CUL4A / Fold change vs veh, CUL4A / RFU, CCNY / Fold change vs veh, CCNY / RFU, UFL1 / Fold change vs veh, UFL1 / RFU, COG3 / Fold change vs veh, COG3 / RFU, DIAPH2 / Fold change vs veh, DIAPH2 / RFU, SKA2 / Fold change vs veh, SKA2 / RFU, AFF3 / Fold change vs veh, AFF3 / RFU, LMF1 / Fold change vs veh, LMF1 / RFU, IPO11 / Fold change vs veh, IPO11 / RFU, DFFB / Fold change vs veh, DFFB / RFU, FOXP1 / Fold change vs veh, FOXP1 / RFU, CARD8 / Fold change vs veh, CARD8 / RFU, STRN3 / Fold change vs veh, STRN3 / RFU, ADK / Fold change vs veh, ADK / RFU, RASSF2 / Fold change vs veh, RASSF2 / RFU, WIPF1 / Fold change vs veh, WIPF1 / RFU, LARP1B / Fold change vs veh, LARP1B / RFU, RASA1 / Fold change vs veh, RASA1 / RFU, RB1 / Fold change vs veh, RB1 / RFU, PPFIA1 / Fold change vs veh, PPFIA1 / RFU, MAT2A / Fold change vs veh, MAT2A / RFU, CCT5 / Fold change vs veh, CCT5 / RFU, WDR92 / Fold change vs veh, WDR92 / RFU, CUX1 / Fold change vs veh, CUX1 / RFU, TTC7A / Fold change vs veh, TTC7A / RFU, TMEM135 / Fold change vs veh, TMEM135 / RFU, DEPTOR / Fold change vs veh, DEPTOR / RFU, CPM / Fold change vs veh, CPM / RFU, DNAJB6 / Fold change vs veh, DNAJB6 / RFU, CACNA2D3 / Fold change vs veh, CACNA2D3 / RFU, DTX4 / Fold change vs veh, DTX4 / RFU, TFCP2 / Fold change vs veh, TFCP2 / RFU, GMCL1 /// GMCL1P1 / Fold change vs veh, GMCL1 /// GMCL1P1 / RFU, AEBP2 / Fold change vs veh, AEBP2 / RFU, SNHG1 /// SNORD22 /// SNORD25 /// SNORD26 /// SNORD27 /// SNORD28 /// SNORD29 /// SNORD31 / Fold change vs veh, SNHG1 /// SNORD22 /// SNORD25 /// SNORD26 /// SNORD27 /// SNORD28 /// SNORD29 /// SNORD31 / Fold change (Aza/veh), C12orf56 (ProbeSet 11735607_a_at) / Fold change (ACY-1035/veh), C12orf56 (ProbeSet 11735607_a_at) / Fold change (Aza/veh), FGFR1OP (ProbeSet 11751329_s_at) / Fold change (ACY-1035/veh), FGFR1OP (ProbeSet 11751329_s_at) / Fold change (Aza/veh), VPS36 (ProbeSet 11739960_a_at) / Fold change (ACY-1035/veh), VPS36 (ProbeSet 11739960_a_at) / RFU SYPL1 (11715823_x_at) / Fold change /veh SYPL1 (11715823_x_at) / RFU IGFBP7 (11715501_s_at) / Fold change /veh IGFBP7 (11715501_s_at) / RFU REEP3 (11722064_at) / Fold change /veh REEP3 (11722064_at) / RFU IGLL1 (11728026_x_at) / Fold change /veh IGLL1 (11728026_x_at): dose or concentration left out as unconfirmed
Settings: MV-4-11 cells, 48 hours

Nc1ncn([C@@H]2O[C@H](CO)[C@@H](O)[C@H]2O)c(=O)n1 [azacitidine]
Fold change /veh REEP3 (11722064_at): 0.73
